Experimental data taken from patent publication US5608084A, “Lactones with antioxidising and hypolipidaemic activity useful in the therapy of the atherosclerosis” (priority 1994, dated 1997).

Key:
[1] = test system: B-100 apolipoprotein; assay: Fragmentation of B-100 apolipoprotein on SDS-PAGE (oxidative modification of LDL); type: biochemical, human; conditions: 10 μM
Source text: The determination of the melting point has been carried out by means of a capillary melting point apparatus Electrothermal, without any correction. The I.R. spectrum has been obtained by means of a Perkin-Elmer rood. 963/G spectrophotometer generally, when not otherwise specified, preparing the specimen in potassium bromide and recording the spectrum between 4000 and 600 nm. […] The mass spectrum has been recorded by using a VG 7070E mass spectrometer, at a 70 eV ionization voltage and with a 6 Kvolt acceleration voltage. […] Chem., 43, 2923, (1978). […] The antioxidant activity has been evaluated through the capability of some lactones of formula I to prevent and/or delay the oxidative modification of the lipoproteins (LDL), caused by a chemical method by incubating native LDL with cupric ions, according to the method described by Steinbrecher U. P. in J. Biol. Chem., 262, 3603-3608, (1987). The evaluation of the oxidation degree of the LDL through the monitoring of the concentration of aldehydes derived from the degradation of the lipidic peroxides and the observation of the modifications of the B-100 apolipoprotein represent the used experimental approach. The antioxidant activity of the lactones has been expressed in terms of duration of the latency period that represents a parameter of the resistance to the oxidation of the LDL. The LDL have been isolated from the human plasma obtained from blood collected, in the presence of EDTA, from healty volunteers fasting from 8 hours according to the method described by Havel H. in J. Clin. Invest., 34, 1345-1353, (1955). The solution, dialyzed in Visking-Serva dialysis tubes at 4° C. for 72 hours in phosphate buffer (PBS) added with EDTA (0.24 mM), has been filtered through a membrane with 0.45μ porosity (Millex HV Filters) and the proteic concentration has been determined according to the method described by Lowry O. et al. in J. Biol. Chem., 193, 265-275, (1951). The solution has been diluted with PBS-EDTA at a concentration of 500 μg protein/ml and the obtained LDL have been incubated at 42° C. for 45 minutes in presence of the lactones solubilized in ethanol (1.7 μl/ml LDL). At the end of the incubation the solutions have been placed on ice for 45 minutes and dialyzed at 4° C. for 36 hours in PBS. The oxidation of the LDL has been carried out with 5 μM cupric sulfate at 37° C. and stopped at the experimental times by cooling at 4° C. and adding 0.24 mM of EDTA. The solutions of LDL have been kept at 4° C. and sheltered from light during the experimental procedure. […] 52, (1978).
The inhibition of the oxidative process has been evaluated also by means of the study of the fragmentation of the B-100 apolipoprotein through the electrophoretic analysis on polyacrylamide gel in presence of sodium dodecylsulfate (SDS-PAGE), according to the method described by Laemmli U. K., in Nature, 227, 680, (1970). The quantitative evaluation of the disappearance of the B-100 apolipoprotein has been carried out by densitometric unidimensional measurement of the absorbance at λ=633nm, on an electrophoretic plate 13.5 cm long, after colouring with Coomassie Brillant Blue. The reagents used for the preparation and coloration of the gels, the reference standard (SDS-PAGE standards Broad Range--Cat. no. 161-0317), the gradient former (gradient former Bio-Rad Mod. 385) and the electrophoretic cell (Protean II) are Bio-Rad products; the feeder is a LKB Pharmacia Mod. 2197, the densitometer is a Pharmacia LKB Mod. 2222-020 Ultrascan XL with integrators LKB 2220 and LKB 2190 GelScan Software Package.

[2] = test system: Watanabe rabbits, suffering from familial hypercholesterolaemia; conditions: cited from earlier work
[3] = test system: LDL; conditions: in vitro, LDL incubated with antioxidizer; cited from earlier work

SMILES | Area of the B-100 apolipoprotein peak ([1]; 0 minutes) [AU/mm] | Area of the B-100 apolipoprotein peak ([1]; 60 minutes) [AU/mm] | Area of the B-100 apolipoprotein peak ([1]; 90 minutes) [AU/mm] | Area of the B-100 apolipoprotein peak ([1]; 120 minutes) [AU/mm] | Area of the B-100 apolipoprotein peak ([1]; 150 minutes) [AU/mm] | Area of the B-100 apolipoprotein peak ([1]; 180 minutes) [AU/mm] | Area of the B-100 apolipoprotein peak ([1]; 360 minutes) [AU/mm] | LDL plasma levels [2] | atheromatous lesions [2] | atherogenic potentialities of the LDL [3]
Cc1c(C)c2c(c(C)c1O)CCC(C)OC(=O)C(C)(C)CCCO2 (stereo not drawn) [Example 3, 6,6,9,13,15,16-Hexamethyl-14-hydroxy-2,8-dioxabicyclo[10.4.0]hexadec-12,14,16-trien-7-one] | 2.2 | 2.0 | 1.9 | 1.6 | 1.5 | 1.5 | 1.5 |  |  | 
CCC1CCc2c(C)c(O)c(C)c(C)c2OCCCC(C)(C)C(=O)O1 (stereo not drawn) [Example 6, 9-Ethyl-14-hydroxy-6,6,13,15,16-pentamethyl-2,8-dioxabicyclo[10.4.0]hexadec-12,14,16-trien-7-one] | 2.5 | 2.3 | 2.1 | 2.0 | 1.7 | 1.6 | 1.6 |  |  | 
CC(C)(Sc1cc(C(C)(C)C)c(O)c(C(C)(C)C)c1)Sc1cc(C(C)(C)C)c(O)c(C(C)(C)C)c1 [Probucol, reference compound] | 2.7 | 1.8 | 1.6 | 0.9 | 0.9 | 0.6 | 0.3 | does not substantially modify the LDL plasma levels | lowers the atheromatous lesions | remarkably lowered
